Measured values taken from patent US5250700A, “Phenyl pyrazolidinones as bronchodilators and anti-inflammatory agents” (American Home Products Corporation, priority 1992, dated 1993).
Where a name gives a salt, the structure may show the parent alone.

These molecules were tested on PDE IV (assay: Inhibition of PDE IV isolated from canine tracheal muscle (cAMP metabolism)). Details: at 10^-5 (concentration unit not given); percentage of the reduction induced by 10 μM rolipram; canine trachealis PDE IV.
Type: biochemical
Description: The following assay is employed to assess the ability of the compound of the invention to inhibit PDE IV. A solution containing PDE IV is prepared from canine tracheal muscle as follows: The dog is euthanized with an overdose of euthanasia while under anesthesia induced by a 33 mg/kg IV bolus of Nembutal. The trachealis muscle is removed, cleaned of connective tissue, and minced thoroughly. Three to four grams of tissue is then homogenized in Trim-HCl buffer (pH 7.8) using a Polytron. The homogenate is then centrifuged at 25,000×g (4° C.) for 30 minutes. The supernatant is decanted and filtered through four layers of gauze, and applied to a 40 cm×2 cm DEAE-Sepharose column that is equilibrated with Trim-HCl buffer (pH 7.8). The column is then washed with an additional 240 mL of buffer to remove unbound proteins. […] Each fraction is assayed for cAMP- and cGMP- metabolizing PDE activity. Fractions eluting at approximately 0.6 M Na-acetate, and containing CAMP but not CGMP metabolic activity are pooled and used as a PDE stock solution for assaying PDE IV inhibitory activity. […] CI-930 is included as an inhibitor of the cyclic GMP-sensitive, cyclic AMP-selectivePDE (PDE III) that is also present in the PDE IV stock solution when prepared as described above.
With `COc1ccc(C2CC(=O)NN2CC(=O)O)cc1OC1CCCC1` (centres unmarked) [Example 7] the “inhibition of PDE IV (percentage)” value was 39%. With `COC(=O)N1NC(=O)CC1c1ccc(OC)c(OC2CCCC2)c1` (centres unmarked) [Example 6, 5-[3-(Cyclopentyloxy)-4-methoxyphenyl]-3-oxo-1-pyrazolidinecarboxylic acid methyl ester] the “inhibition of PDE IV (percentage)” value was 52%. For `COc1ccc(C2CC(=O)N(C(=O)Nc3ccccc3)N2C)cc1OC1CCCC1` (centres unmarked) [Example 16, 3-[3-(cyclopentyloxy)-4-methoxyphenyl-2-methyl-5-oxo-N-phenyl-1-pyrazolidinecarboxamide hydrochloride], the “inhibition of PDE IV (percentage)” value was 48%.

Same assay, conditions: canine trachealis PDE IV, 1 μM 3H-cAMP, 10 μM CI-930, 30° C., pH 7.8; reduction expressed relative to 10 μM rolipram
`CCN(CC)CCNC(=O)N1C(=O)CC(c2ccc(OC)c(OC3CCCC3)c2)N1C` (centres unmarked) [Example 36, 3-(3-Cyclopentyloxy-4-methoxyphenyl)-2-methyl-5-oxo-pyrazolidine-1-carboxylic acid 2-(diethyl-amino) ethylamide] showed an IC50 of 5600 nM. In the case of `COc1ccc(C2CC(=O)NN2C)cc1OC1CCCC1` (centres unmarked) [Example 2, 5-[3--(Cyclopentyloxy)-4-methoxyphenyl]-1-methyl-3-pyrazolidinone], the IC50 is reported as 680 nM. With `COc1ccc(C2CC(=O)N(C(=O)NCc3cccnc3)N2C)cc1OC1CCCC1` (centres unmarked) [Example 24, 3-[3-(cyclopentyloxy)-4-methoxyphenyl]-2-methyl-5-oxo-N-(3-pyridinylmethyl)-1-pyrazolidine carboxamide] the IC50 was 85 nM. `COc1ccc(C2CC(=O)N(C(C)=O)N2C)cc1OC1CCCC1` (centres unmarked) [Example 31, 2-acetyl-5-[3-(cyclopentyloxy)-4-methoxyphentyl]-1-methyl-3-pyrazolidinone hydrochloride] showed an IC50 of 980 nM. `COC(=O)CN1NC(=O)CC1c1ccc(OC)c(OC2CCCC2)c1` (centres unmarked) [Example 4, 5-[3-(Cyclopentyloxy)-4-methoxylphenyl]-3-oxo-1-pyrazolidineacetic acid methyl ester] showed an IC50 of 440 nM. Molecule `COc1ccc(C2CC(=O)N(C(=O)Nc3ccc(F)cc3)N2C)cc1OC1CCCC1` (centres unmarked) [Example 22] has an IC50 of 210 nM. For `COc1ccc(C2CC(=O)N(Cc3cccnc3)N2C)cc1OC1CCCC1` (centres unmarked) [Example 25, 5-[3-(cyclopentyloxy)-4-methoxyphenyl]-1-methyl-2-(3-pyridinylmethyl)-3-pyrazolidinone hydrochloride dehydrate], the IC50 was 1500 nM. With `COc1ccc(C2CC(=O)N(Cc3cncc(Br)c3)N2C)cc1OC1CCCC1` (centres unmarked) [Example 27, 2-[(5-bromo-3-pyridinyl)methyl]-5-[3-(cyclopentyloxy)-4-methoxyphenyl]-1-methyl-3-pyrazolidinone hydrochloride] the IC50 was 940 nM. `COc1ccc(C2CC(=O)N(C(=O)NN3CCOCC3)N2C)cc1OC1CCCC1` (centres unmarked) [Example 37, 3-(3-Cyclolpentyloxy-4-methoxyphenyl)-2-methyl-5-oxo-pyrazolidine-1-carboxylic acid morilholin-4-ylamide] showed an IC50 of 3200 nM. `COc1ccc(NC(=O)N2C(=O)CC(c3ccc(OC)c(OC4CCCC4)c3)N2C)cc1` (centres unmarked) [Example 19, 3-[3-(cyclopentyloxy)-4-methoxyphenyl]-N-(4-methoxyphenyl)-2-methyl-5-oxo-1-pyrazolidinecarboxamide] was tested, and the IC50 was 120 nM. For `COc1ccc(C2CC(=O)N(C(N)=O)N2Cc2ccccc2)cc1OC1CCCC1` (centres unmarked) [Example 23], the IC50 was 320 nM. For `COc1ccc(C2CC(=O)NN2Cc2ccccc2)cc1OC1CCCC1` (centres unmarked) [Example 34, 5-[3-(cyclopentyloxy)-4-methoxyphenyl]-1-(phenylmethyl)-3-pyrazolidinone], the IC50 was 58 nM. Work on `COc1ccc(C2CC(=O)N(C(=O)NCCN3CCOCC3)N2C)cc1OC1CCCC1` (centres unmarked) [Example 41, 3-(3-Cyclolpentyloxy-4-methoxyphenyl)-2-methyl-5-oxo-pyrazolidine-1-carboxylic acid 2-morlpholin-4-yl ethylamide] yielded an IC50 of 2400 nM. In the case of `CCN1NC(=O)CC1c1ccc(OC)c(OC2CCCC2)c1` (centres unmarked) [Example 35, 5-[3-(cyclopentyloxy)-4-methoxyphenyl]-1-ethyl-3-pyrazolidinone], the IC50 is reported as 4100 nM.
